Experiments:
[1] = test system: D458 cells; experiment: Proliferation assay D458; format: cell-based, human; settings: D458, stable knockdown of PVT1ts vs sh.Cntrl; two-way ANOVA
[2] = test system: MYC; experiment: Western blot of MYC in D458; format: cell-based, human; settings: D458, stable knockdown of PVT1ts vs sh.Cntrl; n=3, unpaired t-test
Protocol: For whole-cell lysate, the cell pellet was resuspended in RIPA buffer (Cell Signaling Technologies, Danvers, MA) supplemented with a protease inhibitor cocktail (Cell Signaling Technologies) and incubated on ice for 20 minutes. The lysate was then centrifuged at 14,000 revolutions/minute for 10 minutes at 4°C, and the supernatant was harvested. Protein concentration was quantified by BCA Protein Assay Kit (Thermo Fisher Scientific) as per kit protocol. Next, 20 μg of whole-cell lysate was electrophoresed on a 4%–20% gradient polyacrylamide gel with SDS (Bio-Rad, Hercules, CA) and electroblotted onto polyvinylidene difluoride membranes (Bio-Rad). Membranes were blocked in Tris-buffered saline with 5% nonfat milk and 0.1% Tween and probed with antibodies. Bound proteins were detected with horseradish-peroxidase–conjugated secondary antibodies (Cell Signaling Technologies) and SuperSignal West Femto (Thermo Fisher Scientific). Antibodies used were anti-c-MYC (Cell Signaling Technology, 5605, anti-Phospho-c-MYC (Ser62) (Cell Signaling Technology, 13748), anti-β ACTIN (Cell Signaling Technology, 8457), anti-Phospho-p44/42 (Erk1/2) (Thr202/Tyr204) (Cell Signaling Technology, 4370), anti-p44/42 (Erk1/2) (Cell Signaling Technology, 4695), anti-Phospho-MEK1/2 (Ser217/221) (Cell Signaling Technology, 9154), anti-MEK1/2 (Cell Signaling Technology, 9122), anti-Phospho-p90RSK (Ser380) (Cell Signaling Technology, 11989), anti-RSK1/RSK2/RSK3 (Cell Signaling Technology, 9355), Anti-Rabbit IgG, HRP-linked Antibody (Cell Signaling Technology, 7074). Anti-FFX (Firefox) monoclonal antibodies were custom produced by Proteintech using FFX residues 13–104 as epitope.
The HNB ORF and eGFP (control) were cloned in an inducible lentivirus expression, TRE-gateway plasmid (pLIX_403, Addgene, #41395). Lentivirus was produced in HEK293T cells using the protocol described above. D458, NCI-H1792 and COLO 320DM cells were transfected with inducible HNB lentivirus and selected with 1 μg/mL concentration of Puromycin. Selected cells were seeded at a concentration of 4 × 10^5 cells per well. After 24 hours of seeding, the cells were treated with 1 μg/mL Doxycycline for 48 hours. The cells were then lysed using RIPA buffer and 1X protease inhibitor cocktail. The protein lysates were collected and quantified using the previously described protocol. 20 μg of whole-cell lysate was electrophoresed on a 4%–20% gradient polyacrylamide gel with SDS (Bio-Rad, Hercules, CA) and electroblotted onto polyvinylidene difluoride membranes (Bio-Rad). […] Bound proteins were detected with horseradish-peroxidase–conjugated secondary antibodies (Cell Signaling Technologies) and SuperSignal West Femto (Thermo Fisher Scientific). […]

[3] = test system: D458 cells; experiment: Orthotopic transplantation of D458 into brains of immunocompromised mice; format: in vivo; settings: D458 sh.RNA1-PVT1ts vs sh.Cntrl in mouse brain; bioluminescence day 9, 14, 21; n=10 each, unpaired t-test
Protocol: All animal procedures were conducted in accordance with the guidelines established by the Institutional Animal Care and Use Committee of Sanford Burnham Prebys Medical Discovery Institute. Efforts were made to minimize animal suffering and to reduce the number of animals used as per the guidelines of AAALAC International and a Multiple Project Assurance A3053–1 is on file in the OLAW, DHHS.

[4] = test system: U2OS cells; experiment: Proliferation assay U2OS; format: cell-based, human; settings: si.PVT1ts vs si_ctrl, n=3, two-way ANOVA
Description: (§1) Cancer cell lines: COLO-320DM, SK-PN-DW, U2OS, BxPC-3, DU145, SKBR-3 and, NCI-H1792 were obtained from American Type Culture Collection (Rockville, MD) and grown in their required growth medium per the American Type Culture Collection description. D458 and MB002 were obtained from Dr. Michael Taylor’s lab at SickKids hospital, Toronto. Cell line identity for the master stocks were verified by STR genotyping (IDEXX BioResearch)
(§2) Supplementary Figure 14: Analysis of Cell Proliferation in MYC/PVT1 Neutral Cell Lines
(§3) (U2OS, BxPC-3, DU-145) following Transfection with si_PVT1ts or si_ctrl: Each experiment
(§4) was performed in triplicate (n=3), and statistical significance was determined using two-way
(§5) ANOVA (P values indicated)
(§6) .CC-BY 4.0 International licenseavailable under a
(§7) (which was not certified by peer review) is the author/funder, who has granted bioRxiv a license to display the preprint in perpetuity. It is made
(§8) The copyright holder for this preprintthis version posted February 22, 2025.; https://doi.org/10.1101/2025.02.17.638454doi: bioRxiv preprint […]

[5] = test system: BxPC-3 cells; experiment: Proliferation assay BxPC-3; format: cell-based, human; settings: BxPC-3, si.PVT1ts vs si_ctrl; n=3, two-way ANOVA
Description: as §1, §2, §3, §4, §5, §6, §7, §8

[6] = test system: DU-145 cells; experiment: Proliferation assay DU-145; format: cell-based, human; settings: DU-145, si.PVT1ts vs si_ctrl; n=3, two-way ANOVA
Description: as §1, §2, §3, §4, §5, §6, §7, §8

[7] = test system: MYC; experiment: Western blot of MYC in U2OS; format: cell-based, human; settings: si.PVT1ts vs si.Ctrl, n=3, unpaired t-test
Protocol: (§9) For whole-cell lysate, the cell pellet was resuspended in RIPA buffer (Cell Signaling Technologies, Danvers, MA) supplemented with a protease inhibitor cocktail (Cell Signaling Technologies) and incubated on ice for 20 minutes. The lysate was then centrifuged at 14,000 revolutions/minute for 10 minutes at 4°C, and the supernatant was harvested. Protein concentration was quantified by BCA Protein Assay Kit (Thermo Fisher Scientific) as per kit protocol. Next, 20 μg of whole-cell lysate was electrophoresed on a 4%–20% gradient polyacrylamide gel with SDS (Bio-Rad, Hercules, CA) and electroblotted onto polyvinylidene difluoride membranes (Bio-Rad). Membranes were blocked in Tris-buffered saline with 5% nonfat milk and 0.1% Tween and probed with antibodies. Bound proteins were detected with horseradish-peroxidase–conjugated secondary antibodies (Cell Signaling Technologies) and SuperSignal West Femto (Thermo Fisher Scientific). […]
Supplementary Figure 10: FFX protein augments MYC expression (A) Western blot analysis of MYC expression in U2OS cells ectopically transduced with constructs expressing GFP (control) or FFX. […] (C&D) Western blot analysis and quantification of MYC expression in U2OS cells transduced with GFP (control), FFX, FFX(CO), and FFX ATG>TGA. […]

[8] = test system: MYC; experiment: Western blot of MYC in BxPC-3; format: cell-based, human; settings: BxPC-3, si.PVT1ts vs si.Ctrl; n=3, unpaired t-test
Protocol: as §9

[9] = test system: MYC; experiment: Western blot of MYC in DU-145; format: cell-based, human; settings: DU-145, si.PVT1ts vs si.Ctrl; n=3, unpaired t-test
Protocol: as §9

Substance | cellular proliferation [1] | MYC protein levels [2] | tumor growth after orthotopic injection [3] | cellular proliferation [4] | cellular proliferation [5] | cellular proliferation [6] | MYC protein levels [7] | MYC protein levels [8] | MYC protein levels [9]
shRNA1-PVT1ts: shRNA against PVT1ts, CCGGGGACAGCTTCAACCCATTACG CTCGAGCGTAATGGGTTGAAGCTGTCCTTTTTG (CCGGGGACAGCTTCAACCCATTACGCTCGAGCGTAATGGGTTGAAGCTGTCCTTTTTG) | increased proliferation | increased proliferation (Figure 4D) and MYC protein levels | grew significantly more aggressively than controls |  |  |  |  |  | 
shRNA2-PVT1ts: shRNA against PVT1ts, CCGGACCTATGAGCTTTGAATAATT CAAGAGATTATTCAAAGCTCATAGGTTTTTT (CCGGACCTATGAGCTTTGAATAATTCAAGAGATTATTCAAAGCTCATAGGTTTTTT) | increased proliferation | increased proliferation (Figure 4D) and MYC protein levels |  |  |  |  |  |  | 
si.PVT1ts: siRNA targeting variants containing exons 7–9, 5’-ACCUAUGAGCUUUGAAUAA-3’ (other strand not given here) |  |  |  | proliferate faster | proliferate faster | proliferate faster | increase in MYC protein levels | increase in MYC protein levels | increase in MYC protein levels
